These compounds were tested against human PTGES (Homo sapiens (Human), UniProt O14684) (assay: Human PTGES biochemical enzyme inhibition assay (conversion of PGH2 to PGE2, TR-FRET)). Details: Enzymatic conversion of PGH2 to PGE2; read-out: Human PTGES IC50.
Summary of the method: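 FLAG-tagged human PTGES from Hi-5 insect cells preincubated 15–20 min with compound in pH 7.2 phosphate buffer with 2.5 mM reduced glutathione; reaction started with 8 nM PGH2 final, stopped with SnCl2/KF.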

Chain of human PTGES (O14684 whole entry): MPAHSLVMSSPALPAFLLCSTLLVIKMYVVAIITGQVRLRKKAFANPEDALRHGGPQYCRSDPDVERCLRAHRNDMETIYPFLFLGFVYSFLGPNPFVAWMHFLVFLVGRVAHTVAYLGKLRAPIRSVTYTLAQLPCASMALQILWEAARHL

Compared with `Cc1c(CCC(=O)O)cccc1NC(=O)C(c1ccc(-c2cncc(C(F)(F)F)c2)cc1)C1CCCCC1` (racemic) [Example 66, (R/S) 3-{3-[(Cyclohexyl{4-[5-(trifluoromethyl)pyridin-3-yl]phenyl}acetyl)amino]-2-methylphenyl}propanoic acid], `Cc1c(CCC(=O)O)cccc1NC(=O)C(c1ccc(-c2cncc(C(F)(F)F)c2)cc1Cl)C1CCCC1` (racemic) [Example 161, (R/S) 3-(3-{[{2-chloro-4-[5-(trifluoromethyl)pyridin-3-yl]phenyl}(cyclopentyl)acetyl]amino}-2-methylphenyl)propanoic acid] is 5.2-fold higher in IC50: 53.9 nM for the first, 278 nM for the second.

Compared with `CCOc1cncc(-c2ccc(C(C(=O)Nc3cccc(CCC(=O)O)c3C)C3CCCCC3)cc2)c1` (racemic) [Example 67, (R/S) 3-[3-({Cyclohexyl[4-(5-ethoxypyridin-3-yl)phenyl]acetyl}amino)-2-methylphenyl]propanoic acid], `CCOc1cncc(-c2ccc(C(C(=O)Nc3cc(F)cc(CCC(=O)O)c3C)C3CCCC3)cc2)c1` (racemic) [Example 170, (R/S) 3-[3-({[4-(5-ethoxypyridin-3-yl)phenyl](cyclopentyl)acetyl}amino)-5-fluoro-2-methylphenyl]propanoic acid] is 1.7-fold higher in IC50: 328 nM for the first, 573 nM for the second. The first is the more potent here.

First: CCC(CC(=O)O)c1cccc(NC(=O)C(c2ccc(-c3cncc(C)c3)cc2)C2CCCC2)c1C (racemic) [Example 104, (3R/S)-3-[3-({(2RS)-2-Cyclopentyl-2-[4-(5-methylpyridin-3-yl)phenyl]acetyl}amino)-2-methylphenyl]pentanoic acid]
Second: CCC(CC(=O)O)c1cccc(NC(=O)[C@@H](c2ccc(-c3cncc(OC(C)C)c3)cc2)C2CCCC2)c1C (single isomer, unassigned) [Example 203]
The IC50 of the first is 5.7-fold higher: 95.1 nM for the first, 16.7 nM for the second. The second is the more potent here.

Going from `Cc1c(CCC(=O)O)cc(F)cc1NC(=O)C(c1ccc(-c2cncc(C(F)(F)F)c2)cc1)C1CCCC1` (racemic) [Example 167, (R/S) 3-{3-[(cyclopentyl{4-[5-(trifluoromethyl)pyridin-3-yl]phenyl}acetyl)amino]-5-fluoro-2-methylphenyl}propanoic acid] to `Cc1c(CCC(=O)O)cc(F)cc1NC(=O)C(c1ccc(-c2cncc(Cl)c2)cc1)C1CCCC1` (racemic) [Example 168, (R/S) 3-[3-({[4-(5-chloropyridin-3-yl)phenyl](cyclopentyl)acetyl}amino)-5-fluoro-2-methylphenyl]propanoic acid], the IC50 rises from 295 nM to 1190 nM (4-fold).

`Cc1ncc(-c2ccc(C(C(=O)Nc3cc(F)cc(CCC(=O)O)c3C)C3CCCC3)cc2)cc1Cl` (racemic) [Example 169, (R/S) 3-[3-({[4-(5-chloro-6-methylpyridin-3-yl)phenyl](cyclopentyl)acetyl}amino)-5-fluoro-2-methylphenyl]propanoic acid] and `Cc1ncc(-c2ccc(C(C(=O)Nc3cccc(CCC(=O)O)c3C)C3CCCC3)cc2)cc1F` (racemic) [Example 211, (R/S) 3-[3-({cyclopentyl[4-(5-fluoro-6-methylpyridin-3-yl)phenyl]acetyl}amino)-2-methylphenyl]propanoic acid] are within 1.5-fold of each other in IC50: 254 nM for the first, 190 nM for the second.

Compared with `Cc1c(NCC(=O)O)cccc1NC(=O)C(c1ccc(-c2cncc(C(F)(F)F)c2)cc1)C1CCCC1` (racemic) [Example 171, (R/S) N-{3-[(cyclopentyl{4-[5-(trifluoromethyl)pyridin-3-yl]phenyl}acetyl)amino]-2-methylphenyl}glycine], `Cc1c(NC(=O)C(c2ccc(-c3cncc(C(F)(F)F)c3)cc2)C2CCCC2)cccc1OCC(=O)O` (single isomer, unassigned; (+)) [Example 35, (+) {3-[(Cyclopentyl{4-[5-(trifluoromethyl)pyridin-3-yl]phenyl}acetyl)amino]-2-methylphenoxy}acetic acid] is 12-fold higher in IC50: 319 nM for the first, 3730 nM for the second. The first is the more potent here.

`Cc1cc(C(C(=O)Nc2cccc(CCC(=O)O)c2C)C2CCCC2)c(Cl)cc1-c1cncc(Cl)c1` (racemic) [Example 172, (R/S) 3-[3-({[2-chloro-4-(5-chloropyridin-3-yl)-5-methylphenyl](cyclopentyl)acetyl}amino)-2-methylphenyl]propanoic acid] and `Cc1cc(C(C(=O)Nc2cccc(CCC(=O)O)c2C)C2CCCC2)c(F)cc1-c1cncc(Cl)c1` (racemic) [Example 181, (R/S) 3-[3-({[4-(5-chloropyridin-3-yl)-2-fluoro-5-methylphenyl](cyclopentyl)acetyl}amino)-2-methylphenyl]propanoic acid] are within 1.5-fold of each other in IC50: 1860 nM for the first, 2300 nM for the second.

`Cc1cc(C(C(=O)Nc2cccc(CCC(=O)O)c2C)C2CCCC2)c(Cl)cc1-c1cncc(C(F)(F)F)c1` (racemic) [Example 173, (R/S) 3-(3-{[{2-chloro-5-methyl-4-[5-(trifluoromethyl)pyridin-3-yl]phenyl}(cyclopentyl)acetyl]amino}-2-methylphenyl)propanoic acid] and `Cc1cc(C(C(=O)Nc2cccc(CCC(=O)O)c2C)C2CCCC2)c(F)cc1-c1cncc(C(F)(F)F)c1` (racemic) [Example 183, (R/S) 3-{3-[(cyclopentyl{2-fluoro-5-methyl-4-[5-(trifluoromethyl)pyridin-3-yl]phenyl}acetyl)amino]-2-methylphenyl}propanoic acid] are within 1.5-fold of each other in IC50: 1240 nM for the first, 1000 nM for the second.

Going from `Cc1cc(C(C(=O)Nc2cccc(CCC(=O)O)c2C)C2CCCC2)c(Cl)cc1-c1cnc(C)c(Cl)c1` (racemic) [Example 174, (R/S) 3-[3-({[2-chloro-4-(5-chloro-6-methylpyridin-3-yl)-5-methylphenyl](cyclopentyl)acetyl}amino)-2-methylphenyl]propanoic acid] to `Cc1cc(C(C(=O)Nc2cccc(CCC(=O)O)c2C)C2CCCC2)c(F)cc1-c1cnc(C)c(Cl)c1` (racemic) [Example 182, (R/S) 3-[3-({[4-(5-chloro-6-methylpyridin-3-yl)-2-fluoro-5-methylphenyl](cyclopentyl)acetyl}amino)-2-methylphenyl]propanoic acid], the IC50 rises from 444 nM to 741 nM (1.7-fold).

First: Cc1c(CCC(=O)O)cccc1NC(=O)C(c1ccc(-c2cncc(C(F)(F)F)c2)c(Cl)c1)C1CCCC1 (racemic) [Example 175, (R/S) 3-[3-({[3-chloro-4-(5-(trifluoromethyl)pyridin-3-yl)phenyl](cyclopentyl)acetyl}amino)-2-methylphenyl]propanoic acid]
Second: Cc1c(CCC(=O)O)cccc1NC(=O)C(c1ccc(-c2cncc(C(F)(F)F)c2)c(F)c1)C1CCCC1 (single isomer, unassigned; (+)) [Example 49, (+) 3-{3-[(Cyclopentyl{3-fluoro-4-[5-(trifluoromethyl)pyridin-3-yl]phenyl}acetyl)amino]-2-methylphenyl}propanoic acid]
The IC50 of the first is 15-fold lower: 34.6 nM for the first, 530 nM for the second.

Compared with `Cc1ncc(-c2ccc(C(C(=O)Nc3cccc(CCC(=O)O)c3C)C3CCCC3)cc2Cl)cc1Cl` (racemic) [Example 176, (R/S) 3-[3-({[3-chloro-4-(5-chloro-6-methylpyridin-3-yl)phenyl](cyclopentyl)acetyl}amino)-2-methylphenyl]propanoic acid], `Cc1ncc(-c2cc(F)c(C(C(=O)Nc3cccc(CCC(=O)O)c3C)C3CCCC3)cc2F)cc1Cl` (racemic) [Example 180, (R/S) 3-[3-({[4-(5-chloro-6-methylpyridin-3-yl)-2,5-difluorophenyl](cyclopentyl)acetyl}amino)-2-methylphenyl]propanoic acid] is 3-fold lower in IC50: 198 nM for the first, 66.4 nM for the second. The second is the more potent here.

Compared with `Cc1c(CCC(=O)O)cccc1NC(=O)C(c1cc(F)c(-c2cncc(Cl)c2)cc1F)C1CCCC1` (racemic) [Example 178, (R/S) 3-[3-({[4-(5-chloropyridin-3-yl)-2,5-difluorophenyl](cyclopentyl)acetyl}amino)-2-methylphenyl]propanoic acid], `Cc1c(CCC(=O)O)cccc1NC(=O)C(c1cc(F)c(-c2cncc(C(F)(F)F)c2)cc1F)C1CCCC1` (racemic) [Example 179, (R/S) 3-{3-[(cyclopentyl{2,5-difluoro-4-[5-(trifluoromethyl)pyridin-3-yl]phenyl}acetyl)amino]-2-methylphenyl}propanoic acid] is 3.2-fold lower in IC50: 269 nM for the first, 85.2 nM for the second. The second is the more potent here.

First: CCC(CC(=O)O)c1cccc(NC(=O)C(c2ccc(-c3cncc(CC(C)C)c3)c(F)c2)C2CCCC2)c1C (single isomer, unassigned) [Example 194, 3-[3-({cyclopentyl[3-fluoro-4-(5-isobutylpyridin-3-yl)phenyl]acetyl}amino)-2-methylphenyl]pentanoic acid, single enantiomer]
Second: CCc1cncc(-c2ccc(C(C(=O)Nc3cccc(C(CC)CC(=O)O)c3C)C3CCCC3)cc2F)c1 (single isomer, unassigned) [Example 195, 3-[3-({cyclopentyl[4-(5-ethylpyridin-3-yl)-3-fluorophenyl]acetyl}amino)-2-methylphenyl]pentanoic acid, Single Enantiomer]
The IC50 of the first is 1.5-fold lower: 6.82 nM for the first, 10.5 nM for the second. The first is the more potent here.

Compared with `CCC(CC(=O)O)c1cccc(NC(=O)[C@@H](c2ccc(-c3cncc(CC(F)(F)F)c3)cc2)C2CCCC2)c1C` (single isomer, unassigned) [Example 200], `CCC(CC(=O)O)c1cccc(NC(=O)C(c2ccc(-c3cnc(C)c(C(F)(F)F)c3)c(F)c2)C2CCCC2)c1C` (single isomer, unassigned) [Example 201] is 2.7-fold lower in IC50: 17.7 nM for the first, 6.57 nM for the second. The second is the more potent here.

Going from `Cc1c(CCC(=O)O)cccc1NC(=O)C(c1ccc(-c2cncc(CC(F)(F)F)c2)c(F)c1)C1CCC1` (single isomer, unassigned) [Example 205, 3-{3-[(cyclobutyl{3-fluoro-4-[5-(2,2,2-trifluoroethyl)pyridin-3-yl]phenyl}acetyl)amino]-2-methylphenyl}propanoic acid, Single Enantiomer] to `Cc1c(CCC(=O)O)cccc1NC(=O)C(c1ccc(-c2cncc(CC(C)C)c2)c(F)c1)C1CCC1` (single isomer, unassigned) [Example 207, 3-[3-({cyclobutyl[3-fluoro-4-(5-isobutylpyridin-3-yl)phenyl]acetyl}amino)-2-methylphenyl]propanoic acid, Single Enantiomer], the IC50 falls from 66.4 nM to 14.1 nM (4.7-fold).

— patent US10172814B2, “Substituted pyridyl-cycloalkyl-carboxylic acids, compositions containing them and medical uses thereof” (BAYER PHARMA AKTIENGESELLSCHAFT, priority 2014, dated 2019)
